Source: patent US9006139B2, “Active compound combinations” (Bayer Intellectual Property GmbH, priority 2009, dated 2015)

What was measured:
Type in all cases: in vivo
Fusarium graminearum = conditions: Table L; 62.5 ppm a.i.
Alternaria solani = assay: Alternaria test (tomatoes)/protective; conditions: Table E, test 2, 2.5 ppm a.i.; for pest or weed control at 2.5 ppm: Alternaria solani, 72 h, read-out: Efficacy in % found
Method: (§1) Solvent: 24.5 parts by weight of acetone
(§2) • 24.5 parts by weight of dimethylacetamide Emulsifier: 1 part by weight of alkylaryl polyglycol ether
To produce a suitable preparation of active compound, 1 part by weight of active compound is mixed with the stated amounts of solvent and emulsifier, and the concentrate is diluted with water to the desired concentration. To test for protective activity, young plants are sprayed with the preparation of active compound at the stated rate of application. After the spray coating has dried on, the plants are inoculated with an aqueous spore suspension of Alternaria solani. The plants are then placed in an incubation cabinet at approximately 20° C. and a relative atmospheric humidity of 100%. The test is evaluated 3 days after the inoculation. 0% means an efficacy which corresponds to that of the control while an efficacy of 100% means that no disease is observed.

Botrytis cinerea = assay: Botrytis test (beans)/protective; conditions: Botrytis cinerea, 48 h, Table F, test 3, read-out: Efficacy in % found
Method: as §1, §2
To produce a suitable preparation of active compound, 1 part by weight of active compound is mixed with the stated amounts of solvent and emulsifier, and the concentrate is diluted with water to the desired concentration. To test for protective activity, young plants are sprayed with the preparation of active compound. After the spray coating has dried on, 2 small pieces of agar covered with growth of Botrytis cinerea are placed on each leaf. The inoculated plants are placed in a darkened chamber at 20° C. and a relative atmospheric humidity of 100%. 2 days after the inoculation, the size of the lesions on the leaves is evaluated. 0% means an efficacy which corresponds to that of the control, while an efficacy of 100% means that no disease is observed.

Puccinia triticina = assay: Puccinia triticina-test (wheat)/preventive; conditions: Table M; 62.5 ppm a.i.
Method: (§3) Solvent: 49 parts by weight of n,n-dimethylacetamid
(§4) Emulsifier: 1 part by weight of alkylaryl polyglycol ether
To produce a suitable preparation of active compound, 1 part by weight of active compound or active compound combination is mixed with the stated amounts of solvent and emulsifier, and the concentrate is diluted with water to the desired concentration. To test for preventive activity, young plants are sprayed with the preparation of active compound or active compound combination at the stated rate of application. After the spray coating has been dried, the plants are sprayed with a spore suspension of Puccinia triticina. The plants remain for 48 hours in an incubation cabinet at approximately 20° C. and a relative atmospheric humidity of approximately 100%. The plants are placed in the greenhouse at a temperature of approximately 20° C. and a relative atmospheric humidity of approximately 80%. The test is evaluated 8 days after the inoculation. 0% means an efficacy which corresponds to that of the untreated control, while an efficacy of 100% means that no disease is observed.

[1] = test system: Blumeria graminis fsp. tritici; assay: Blumeria test (wheat)/preventive; conditions: Table G; 62.5 ppm a.i.
Method: as §3, §4
To produce a suitable preparation of active compound, 1 part by weight of active compound or active compound combination is mixed with the stated amounts of solvent and emulsifier, and the concentrate is diluted with water to the desired concentration. To test for preventive activity, young plants are sprayed with the preparation of active compound or active compound combination at the stated rate of application. After the spray coating has been dried, the plants are dusted with spores of Blumeria graminis fsp. tritici. The plants are placed in the greenhouse at a temperature of approximately 18° C. and a relative atmospheric humidity of approximately 80% to promote the development of mildew pustules. The test is evaluated 7 days after the inoculation. 0% means an efficacy which corresponds to that of the untreated control, while an efficacy of 100% means that no disease is observed.

Sphaerotheca fuliginea = assay: Sphaerotheca test (cucumbers)/protective; conditions: Table C, test 4; 5 ppm a.i.
Method: as §1, §2
To produce a suitable preparation of active compound, 1 part by weight of active compound is mixed with the stated amounts of solvent and emulsifier, and the concentrate is diluted with water to the desired concentration. To test for protect activity, young plants are sprayed with the preparation of active compound at the stated rate of application. After the spray coating has dried on, the plants are inoculated with an aqueous spore suspension of Sphaerotheca fuliginea. The plants are then placed in a greenhouse at approximately 23° C. and a relative atmospheric humidity of approximately 70%. The test is evaluated 7 days after the inoculation. 0% means an efficacy which corresponds to that of the control, while an efficacy of 100% means that no disease is observed.

SMILES: CC1(C)CCC(Cc2ccc(Cl)cc2)C1(O)Cn1cncn1 (stereo not shown) [1.30, metconazole]
- Efficacy in % found (Fusarium graminearum): 0%

SMILES: CC(C)CC(C)c1sccc1NC(=O)c1cn(C)nc1C(F)(F)F (stereo not shown) [(2.20), penthiopyrad]
- pest or weed control at 2.5 ppm (Alternaria solani): 50%
- pest or weed control at 2.5 ppm (Botrytis cinerea; 2.5 ppm a.i.): 65%
- Efficacy in % found (Puccinia triticina): 70%

SMILES: CNC(=O)/C(=N/OC)c1ccccc1Oc1ccccc1 [(3.10), metominostrobin]
- pest or weed control at 2.5 ppm (Alternaria solani): 15%
- pest or weed control at 50 ppm (Botrytis cinerea; 50 ppm a.i.): 55%
- Efficacy in % found [1]: 13%

SMILES: CO/C=C(/C(=O)OC)c1ccccc1COc1cccc(C(F)(F)F)n1 [(3.12), picoxystrobin]
- Efficacy in % found (Sphaerotheca fuliginea): 62%
- Efficacy in % found (Alternaria solani): 60%
- Efficacy in % found (Puccinia triticina): 80%
